The values below come from patent US20150259344A1, “IMIDAZOLE DERIVATIVE” (DAINIPPON SUMITOMO PHARMA CO., LTD., priority 2012, published 2015).

T1 sequence (P36544 23-502): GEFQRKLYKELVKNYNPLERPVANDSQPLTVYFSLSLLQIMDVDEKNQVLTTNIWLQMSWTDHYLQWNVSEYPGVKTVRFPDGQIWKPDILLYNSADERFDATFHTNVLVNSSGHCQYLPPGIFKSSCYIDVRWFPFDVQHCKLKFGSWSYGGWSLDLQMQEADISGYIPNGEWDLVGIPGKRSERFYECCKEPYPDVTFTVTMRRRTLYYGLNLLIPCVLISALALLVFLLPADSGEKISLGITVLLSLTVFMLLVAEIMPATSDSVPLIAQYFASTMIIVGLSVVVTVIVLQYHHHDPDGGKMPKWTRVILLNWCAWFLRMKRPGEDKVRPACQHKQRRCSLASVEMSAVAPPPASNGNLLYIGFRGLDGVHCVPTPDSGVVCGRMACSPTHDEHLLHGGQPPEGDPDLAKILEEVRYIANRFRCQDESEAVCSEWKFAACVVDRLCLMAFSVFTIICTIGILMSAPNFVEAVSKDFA

One experiment addresses T1, human α7 nAChR (Homo sapiens, UniProt P36544).
T1 construct: expressed in transfected cells
The experiment can be described thus: Evaluation of PAM activity with human α7 nACh receptor stably expressing cells (aequorin luminescence, FDSS7000). Format: cell-based. The settings on record: 1 μM test compound (values marked *, footnote of Table 25); ACh at EC20; ratio of RLU (Max-Min) to control wells; read-out: α7PAM (%) @1 μM. The protocol: Evaluation of PAM activity with human α7 nACh receptor stably expressing cells
(1) Human α7 nAChR stably expressing cells
Human α7 nAChR stably expressing cells were generated and cultured.
Thus, the cells were subcultured.
Seven days after subculturing, the cells were treated with TrypLE Express to collect them when they were about 80% confluent.
On the next day after seeding, Viviren (cat#E649X, Promega, Madison, Wis., USA) was added to the medium so that the final concentration could be 4 μM (15 μL/well). The plates were centrifuged and then placed in the dark for 4 hours at room temperature.
(2) Preparation of the Test Samples
Each of the test compounds was dissolved in DMSO to prepare each test sample at a concentration of 1000-fold the final concentration. To the solution was added Hanks/20 mM HEPES/0.2% BSA (cat#A3803, Sigma, St. Louis, Mo., USA), and the concentration was adjusted to 6-fold the final concentration.
(3) Evaluation of PAM Activity
FDSS7000 (Hamamatsu Photonics) was used to detect the luminescence signal evoked by α7 nAChR stimulation. The cells and a luminescent substrate were put on a plate, and the test sample was added thereto. […] The ratio of the RLU (Max-Min) of the test-compound-containing wells to that of the control wells was defined as PAM activity.
Take `O=C(NCC1CCCCC1)N1CCC(n2cnc(-c3c(F)cccc3F)c2)CC1` [Example 11]: the activity at 1 µM amounted to 116%.
On the same count and under the same terms, next, `COC1CCC(NC(=O)N2CCC(n3cnc(-c4ccc(F)cc4)c3)CC2)CC1` (stereo not shown) [Example 33]: 126%.
Take `O=C(NC1CCC2(CC1)CC2)N1CCC(n2cnc(-c3cccc(F)c3)c2)CC1` [Example 46]: the activity at 1 µM was determined as 104%.

Still in this experiment, the particulars now being: 10 μM test compound; ACh at EC20; ratio of RLU (Max-Min) to control wells.
For the molecule `CC(C)(F)C(=O)N[C@H]1CC[C@@H](n2cnc(-c3ccc(F)cc3)c2)CC1` [Example 8, 2-Fluoro-N-{cis-4-[4-(4-fluorophenyl)-1H-imidazol-1-yl]cyclohexyl}-2-methylpropanamide], the “α7PAM (%) @10 μM” value was 476%.

The same experiment, now with this note: 10 μM test compound; ACh at EC20; ratio of RLU (Max-Min) to control wells; read-out: α7PAM (%) @10 μM.
As for `O=C(NC1CC2CCC1C2)N1CCC(n2cnc(-c3cccc(F)c3)c2)CC1` (stereo not shown) [Example 2, N-(Bicyclo[2.2.1]hept-2-yl)-4-[4-(3-fluorophenyl)-1H-imidazol-1-yl]piperidine-1-carboxamide], the activity at 10 µM was 117%.
Same read-out and setting: under `O=C(N[C@H]1CC[C@H](C(F)(F)F)CC1)N1CCC(n2cnc(-c3cccc(F)c3)c2)CC1` [Example 3, 4-[4-(3-Fluorophenyl)-1H-imidazol-1-yl]-N-[trans-4-(trifluoromethyl)cyclohexyl]piperidine-1-carboxamide] stands 493%; under `CO[C@H]1CC[C@H](NC(=O)N2CCC(n3cnc(-c4ccc(C(F)(F)F)cc4)c3)CC2)CC1` [Example 4, N-(trans-4-Methoxycyclohexyl)-4-{4-[4-(trifluoromethyl)phenyl]-1H-imidazol-1-yl}piperidine-1-carboxamide], 220%.
For `O=C(C1CCC(F)(F)CC1)N1CCC(n2cnc(-c3ccccc3)c2)CC1` [Example 6, [4-(4-Phenyl-1H-imidazol-1-yl)piperidin-1-yl](4,4-difluorocyclohexyl)methanone], the activity at 10 µM worked out at 292%.
For the molecule `N#Cc1c(-c2ccccc2)ncn1C1CCN(C(=O)C2CCC(F)(F)CC2)CC1` [Example 7, 1-{1-[(4,4-Difluorocyclohexyl)carbonyl]piperidin-4-yl}-4-phenyl-1H-imidazole-5-carbonitrile], the activity at 10 µM worked out at 644%.
Same read-out and setting: next, `O=C(NC1CCCCC1)[C@H]1CC[C@@H](n2cnc(-c3ccccc3)c2)CC1` [Example 9, cis-N-Cyclohexyl-4-(4-phenyl-1H-imidazol-1-yl)cyclohexanecarboxamide]: 121%.
On to `O=C(NC1CCCCC1)N1CCC(n2cnc(-c3c(F)cccc3F)c2)CC1` [Example 10], for which the activity at 10 µM was 597%.
On the same count and under the same terms, under `O=C(Nc1ccccc1F)N1CCC(n2cnc(-c3c(F)cccc3F)c2)CC1` [Example 12] stands 283%; under `Cc1ccccc1-c1cn(C2CCN(C(=O)Nc3ccccc3F)CC2)cn1` [Example 13], 161%.
Consider `Cc1ccccc1-c1cn(C2CCN(C(=O)NC3CCCCC3)CC2)cn1` [Example 14], for which the activity at 10 µM amounted to 351%.
`O=C(NC1CCCCC1)N1CCC(n2cnc(-c3ccc(F)cc3)c2)CC1` [Example 15]: the activity at 10 µM was 596%.
Regarding `O=C(NC1CCCCC1)N1CCC(n2cnc(-c3ccc(Cl)cc3)c2)CC1` [Example 20], the activity at 10 µM was 656%.
Turning to `O=C(Nc1ccccc1F)N1CCC(n2cnc(-c3ccc(Cl)cc3)c2)CC1` [Example 21], the activity at 10 µM was 291%.
Same read-out and setting: under `O=C(NC1CCCCC1)N1CCC(n2cnc(-c3ccc(C(F)(F)F)cc3)c2)CC1` [Example 23] stands 209%; under `O=C(Nc1ccccc1F)N1CCC(n2cnc(-c3ccc(C(F)(F)F)cc3)c2)CC1` [Example 24], 228%; under `O=C(NC1CCCCC1)N1CCC(n2cnc(-c3ccc(F)c(F)c3)c2)CC1` [Example 26], 563%.
The same measure, in the same setting: under `O=C(Nc1ccccc1F)N1CCC(n2cnc(-c3ccc(F)c(F)c3)c2)CC1` [Example 27] stands 139%; under `O=C(NC1CCC(F)(F)CC1)N1CCC(n2cnc(-c3ccc(F)c(F)c3)c2)CC1` [Example 28], 798%.
Regarding `O=C(NC1CCOCC1)N1CCC(n2cnc(-c3ccc(C(F)(F)F)cc3)c2)CC1` [Example 29], the activity at 10 µM was found to be 378%.
Still for that read-out and setting: next, `O=C(NC1CCCC1)N1CCC(n2cnc(-c3cccc(F)c3)c2)CC1` [Example 30]: 319%; `CC1(NC(=O)N2CCC(n3cnc(-c4cccc(F)c4)c3)CC2)CCC1` [Example 31]: 300%; `O=C(NC1CCC(F)(F)CC1)N1CCC(n2cnc(-c3cccc(F)c3)c2)CC1` [Example 32]: 993%.
Still for that read-out and setting: under `O=C(NC1CCCCC1)N1CCC(n2cnc(-c3cc(F)cc(F)c3)c2)CC1` [Example 34] stands 596%; under `O=C(NC1CCC(F)(F)CC1)N1CCC(n2cnc(-c3cc(F)cc(F)c3)c2)CC1` [Example 35], 878%; under `O=C(NC1CCCC1)N1CCC(n2cnc(-c3ccccc3)c2)CC1` [Example 36], 193%.
On the same count and under the same terms, next, `O=C(NC1CCCCC1)N1CCC(n2cnc(-c3ccccc3)c2)CC1` [Example 37]: 366%.
For `O=C(NC1CC2CCC1C2)N1CCC(n2cnc(-c3ccccc3)c2)CC1` (stereo not shown) [Example 38], the activity at 10 µM amounted to 311%.
Same read-out and setting: under `O=C(NC1CCC(F)(F)CC1)N1CCC(n2cnc(-c3ccccc3)c2)CC1` [Example 39] stands 823%; under `COC1CCC(NC(=O)N2CCC(n3cnc(-c4ccccc4)c3)CC2)CC1` (stereo not shown) [Example 40], 129%.
For the molecule `O=C(NC1CCCCC1)N1CCC(n2cnc(-c3ccc4c(c3)CCO4)c2)CC1` [Example 43], the activity at 10 µM was 250%.
Same read-out and setting: next, `O=C(NC1CCC(F)(F)CC1)N1CCC(n2cnc(-c3ccc4c(c3)CCO4)c2)CC1` [Example 44]: 880%.
The same measure, in the same setting: next, `O=C(NC1CCCCCC1)N1CCC(n2cnc(-c3cccc(F)c3)c2)CC1` [Example 45]: 260%.
As for `O=C(NC1CCCCCC1)N1CCC(n2cnc(-c3ccccc3)c2)CC1` [Example 51], the activity at 10 µM came out at 520%.
The same measure, in the same setting: next, `COC1CCC(NC(=O)N2CCC(n3cnc(-c4ccc(C(F)(F)F)cc4)c3)CC2)CC1` (stereo not shown) [Example 52]: 205%.
Still for that read-out and setting: under `O=C(NC1CCCCC1)N1CCC(n2cnc(-c3cccc(OC(F)F)c3)c2)CC1` [Example 53] stands 256%.
Same read-out and setting: under `O=C(NC1CCCCC1)N1CCC(n2cnc(-c3ccc(OC(F)F)cc3)c2)CC1` [Example 54] stands 371%.
In the case of `CCOc1ccc(-c2cn(C3CCN(C(=O)NC4CCCCC4)CC3)cn2)cc1` [Example 55], the activity at 10 µM came out at 403%.
As for `O=C(NC1CC2CCC1C2)N1CCC(n2cnc(-c3cccc(OC(F)F)c3)c2)CC1` (stereo not shown) [Example 56], the activity at 10 µM was found to be 169%.
Regarding `O=C(NC1CC2CCC1C2)N1CCC(n2cnc(-c3ccc(OC(F)F)cc3)c2)CC1` (stereo not shown) [Example 57], the activity at 10 µM was 302%.
Regarding `CCOc1ccc(-c2cn(C3CCN(C(=O)NC4CC5CCC4C5)CC3)cn2)cc1` (stereo not shown) [Example 58], the activity at 10 µM was 318%.
The same measure, in the same setting: under `O=C(NC1CCC(F)(F)CC1)N1CCC(n2cnc(-c3cccc(OC(F)F)c3)c2)CC1` [Example 59] stands 707%; under `O=C(NC1CCC(F)(F)CC1)N1CCC(n2cnc(-c3ccc(OC(F)F)cc3)c2)CC1` [Example 60], 616%; under `CCOc1ccc(-c2cn(C3CCN(C(=O)NC4CCC(F)(F)CC4)CC3)cn2)cc1` [Example 61], 915%.
For the molecule `CC(C)(C)NC(=O)N1CCC(n2cnc(-c3ccc(F)cc3)c2)CC1` [Example 63], the activity at 10 µM came to 160%.
Still for that read-out and setting: next, `CC(C)(C)NC(=O)N1CCC(n2cnc(-c3cccc(F)c3)c2)CC1` [Example 64]: 149%.
For `CC(C)(C)NC(=O)N1CCC(n2cnc(-c3ccccc3F)c2)CC1` [Example 67], the activity at 10 µM came out at 317%.
Still for that read-out and setting: under `COc1cccc(-c2cn(C3CCN(C(=O)NC(C)(C)C)CC3)cn2)c1` [Example 70] stands 158%; under `COc1cccc(-c2cn(C3CCN(C(=O)NC4CCCCC4)CC3)cn2)c1` [Example 71], 422%.
For the molecule `COc1ccc(-c2ncn(C3CCN(C(=O)NC4CCCC4)CC3)c2Cl)cc1` [Example 74], the activity at 10 µM amounted to 779%.

The experiment is the same for the next values; noted with them: comparison across Tables 18 to 25.
Take `Cc1ccc(-c2cn(C3CCN(C(=O)NC4CCCCC4)CC3)cn2)cc1` [Example 18]: the “PAM activity for α7 nAChR (in words)” value is recorded as “stronger PAM activity than others”.
On to `O=C(NC1CCC(F)(F)CC1)N1CCC(n2cnc(-c3ccc(Cl)cc3)c2)CC1` [Example 22], for which the “PAM activity for α7 nAChR (in words)” value was “stronger PAM activity than others”.
Regarding `O=C(NC1CCC(F)(F)CC1)N1CCC(n2cnc(-c3ccc(C(F)(F)F)cc3)c2)CC1` [Example 25], the “PAM activity for α7 nAChR (in words)” value is given as “stronger PAM activity than others”.
Still for that read-out and setting: under `COc1cc(-c2cn(C3CCN(C(=O)NC4CCCCC4)CC3)cn2)ccc1Cl` [Example 72] stands “stronger PAM activity than others”.
Consider `O=C(NC1CCCCC1)N1CCC(n2cnc(-c3ccccc3)c2Cl)CC1` [Example 73], for which the “PAM activity for α7 nAChR (in words)” value is recorded as “stronger PAM activity than others”.
